Test results as given in US7405241B2, “Use of N2O in the treatment of post-ischemic brain cell deterioration” (Air Liquide Sante (International), priority 2003, dated 2008).

Columns and labels:
[1] = tested on: glutamergic receptors for N-methyl-D-aspartate, NMDA; details: in vitro, literature (Franks et al.; Jevtovic-Todorovic et al.; Yamakura and Harris); cited from earlier work
[2] = tested on: transient focal cerebral ischemia by middle cerebral artery occlusion (MCAO); test: Transient focal cerebral ischemia by middle cerebral artery occlusion (MCAO) in rats, infarct volume after gas inhalation; format: in vivo; details: rat MCAO, compared to air (mixture No. 1); for post-ischemic volume of cortical infarction: FIG. 3b; for post-ischemic volume of striatal infarction: FIG. 3c; for post-ischemic volume of oedema: FIG. 3d
Method: On day 1, focal ischemia was induced in each of the rats by middle cerebral artery occlusion (MCAO), for a period of 1 h 30 minutes.
The transient focal cerebral ischemia by MCAO is obtained conventionally by introducing a flexible nylon thread 1, represented diagrammatically in FIG. 1 (length 6.5 mm, diameter 180 μm), a portion 2 of the proximal end of which has a diameter greater than that of the thread (length 3 mm, diameter 380 μm), into the vascular system of the rat, as far as the region of the ipsilateral hemisphere so as to cause an embolism therein, i.e. an ischemia.
Next, the rats are reperfused for 10 to 20 minutes, and are then made to inhale several mixtures of gases, namely: • mixture No. 1: air (control) • mixture No. 2: N2O (75% vol), the remainder being oxygen (25%) • mixture No. 3: xenon (50% vol), the remainder being oxygen (20 to 25%) and nitrogen (30 to 25%), respectively • mixture No. 4: xenon (75% vol), the remainder being oxygen (25%).
On day 2, i.e. 24 hours after reperfusion, the rats are killed, the brains are recovered and frozen, and thin sections 40 μm thick are cut and then stained with cresyl violet, as shown in FIG. 5.
The volume of neuronal death is calculated, from the sections obtained after staining, in a conventional manner using an appropriate, commercially available conventional program.
In fact, as shown diagrammatically in FIG. 2, the cerebral ischemia engenders, in general, in 24 hours, an infarction in the region which has been subjected to ischemia (penumbra), leading to neuronal death in the brain cells present in a considerable portion of this region.

[3] = tested on: brain receptors of the NMDA type; test: Complementary examination of neurotoxic effects of xenon and N2O versus air on NMDA-type brain receptors (FIG. 4); format: in vivo
Method: Based on this observation, complementary examinations were carried out in order to determine the neurotoxic effects of the xenon and of the nitrous oxide (N2O), at various amounts, compared to air, on brain receptors of the NMDA type.

Row | Compound | behaviour at NMDA receptors [1] | post-ischemic volume of cortical infarction [2] | post-ischemic volume of striatal infarction [2] | post-ischemic volume of oedema [2] | volume of deteriorated NMDA receptors ([3]; dose of 50% or 75% by volume, compared to control (air), FIG. 4) | neuroprotection, comparison between doses ([3]; xenon at 50% by volume compared to xenon at 75%) | neuroprotection, comparison between doses ([3]; N2O at 75% by volume compared to N2O at 50%) | volume of deteriorated NMDA receptors ([3]; in vivo)
1 | [Xe] [xenon] | low-affinity antagonists | decrease | decrease | decrease | smaller volume | more neuroprotective | – | –
2 | [N-]=[N+]=O [N2O, nitrous oxide] | low-affinity antagonists | decrease | decrease | decrease | – | – | more neuroprotective | smaller volume
